Source: publication PMC5052559, “A fragment-based approach applied to a highly flexible target: Insights and challenges towards the inhibition of HSP70 isoforms” (Scientific Reports, 2016)
pKd: −log10 of the molar value.

Columns and labels:
S275F HSC70-NBD = target: T1, S275F HSC70-NBD (Homo sapiens, UniProt P11142, S275F); test: SPR binding to S275F HSC70-NBD mutant
T1 construct: WT HSPA8 (HSC70) residues 1 to 381; GST (N, cleaved yes); made in house; host or cells: E. coli BL21-AI (expressed as described for FL-HSP72)
T1 sequence (P11142 1-381 S275F): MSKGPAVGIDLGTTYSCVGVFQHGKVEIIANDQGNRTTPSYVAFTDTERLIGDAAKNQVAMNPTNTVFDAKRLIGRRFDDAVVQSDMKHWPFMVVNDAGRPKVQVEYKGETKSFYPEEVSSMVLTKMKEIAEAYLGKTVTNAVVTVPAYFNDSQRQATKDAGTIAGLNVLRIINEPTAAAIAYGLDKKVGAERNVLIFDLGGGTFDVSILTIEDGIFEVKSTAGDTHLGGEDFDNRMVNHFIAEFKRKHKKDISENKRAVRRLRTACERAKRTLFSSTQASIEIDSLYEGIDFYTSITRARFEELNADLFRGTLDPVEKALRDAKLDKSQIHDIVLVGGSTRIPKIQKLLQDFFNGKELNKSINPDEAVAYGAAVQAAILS
Method: SPR experiments were carried out using a Biacore T200 (GE Healthcare) at 25 °C. Amine coupling chemistry was used to immobilise the HSC70 NBD domain and S275W, S275F and S275A HSC70-NBD mutant proteins on a carboxymethyl-5′-dextran (CM5) sensor chip. The chip’s surface was activated with a 10 min injection of a 1:1 mixture of 100 mM N-hydroxysuccinimide and 400 mM 1-ethyl-3-(3-dimethylaminopropyl)-carbodiimide. The HSC70 proteins (70 μg/mL in 10 mM sodium acetate, 750 μM ADP, pH 5.0) were immobilised on the surface over a 10 min injection period. The remaining activated groups on the surface were blocked with a 7 min injection of 1 M ethanolamine at pH 8.5. For all the above procedures the flow rate was maintained at 10 μL/min and a 1x phosphate buffered saline running buffer (PBS running buffer: 10 mM NaHPO4/NaH2PO4 pH 7.4, 2.7 mM KCl, 137 mM NaCl) was used during immobilisation. Approximately ~13,000 response units (RU) of protein could be routinely captured on the CM5 chip on flow cells two to four. Flow cell one was left unmodified as the reference surface. Our in-house fragment library of 1962 fragments at a stock concentration of 100 mM in 100% (v/v) was screened. SPR screening plates were prepared by dispensing of 0.1 μL of each fragment in 384-well polypropylene V-bottomed plates (Greiner) using an ECHO 550 acoustic liquid dispenser (Labcyte) followed by addition of fresh DMSO and running buffer to give a final fragment concentration of 125 μM in 5% (v/v) DMSO in an assay volume of 80 μL.
The full fragment screen was carried out against freshly immobilised WT-HSC70 NBD and the S275W and S275F HSC70-NBD mutants, using the same experimental setting as for the clean screen and a final fragment concentration of 125 μM. Injections of running buffer and of 125 μM adenosine, which was used as a positive control to monitor the health of the protein, were carried out at intervals of 35 cycles throughout the screen. In addition, a DMSO correction curve, prepared as described in the GE manual, was used to correct the effects of the solvent on signal intensity. Raw SPR data from the single point screen was processed and analysed using Pipeline Pilot version 8.0.1.500[37]. Firstly, the reported binding level for each fragment was corrected by subtraction of the buffer blank. Secondly, the values were corrected for the molecular weight of each fragment and the binding was normalised to the binding level observed for the closest adenosine control. […] However, fragments with a binding level exceeding two times the theoretical Rmax were excluded, as we considered this an indication of superstoichiometric binding. Finally, fragments showing preferred binding to wild-type HSC70-NBD versus the HSC70-NBD mutants with a blocked adenine sub pocket were identified by plotting the binding levels of the fragments to wild-type HSC70-NBD against the binding levels of the respective mutant HSC70-NBD variants and added to the primary hit list. In total this procedure yielded 54 initial fragment hits.

HSP70 = target: HSP70; set-up: method as in PMID 19256508; conditions: read-out: SPR Kd; cited from earlier work
S275W HSC70-NBD = target: T2, S275W HSC70-NBD (Homo sapiens, UniProt P11142, S275W); test: SPR binding to S275W HSC70-NBD mutant
T2 construct: WT HSPA8 (HSC70) residues 1 to 381; GST (N, cleaved yes); made in house; host or cells: E. coli BL21-AI (expressed as described for FL-HSP72)
T2 sequence (P11142 1-381 S275W): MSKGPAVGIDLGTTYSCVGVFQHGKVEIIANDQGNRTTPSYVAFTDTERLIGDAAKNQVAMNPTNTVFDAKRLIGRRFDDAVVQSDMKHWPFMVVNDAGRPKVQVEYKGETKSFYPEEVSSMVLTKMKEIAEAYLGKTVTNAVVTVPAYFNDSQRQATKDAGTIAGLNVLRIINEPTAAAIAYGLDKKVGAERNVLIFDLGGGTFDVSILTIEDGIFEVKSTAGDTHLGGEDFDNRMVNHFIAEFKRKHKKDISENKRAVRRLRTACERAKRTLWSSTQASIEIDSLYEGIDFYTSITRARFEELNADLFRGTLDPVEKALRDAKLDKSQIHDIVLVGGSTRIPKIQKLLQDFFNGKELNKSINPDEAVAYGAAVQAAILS
Method: (§1) SPR experiments were carried out using a Biacore T200 (GE Healthcare) at 25 °C. Amine coupling chemistry was used to immobilise the HSC70 NBD domain and S275W, S275F and S275A HSC70-NBD mutant proteins on a carboxymethyl-5′-dextran (CM5) sensor chip. The chip’s surface was activated with a 10 min injection of a 1:1 mixture of 100 mM N-hydroxysuccinimide and 400 mM 1-ethyl-3-(3-dimethylaminopropyl)-carbodiimide. […] The remaining activated groups on the surface were blocked with a 7 min injection of 1 M ethanolamine at pH 8.5. […] Flow cell one was left unmodified as the reference surface.
(§2) In addition, a DMSO correction curve, prepared as described in the GE manual, was used to correct the effects of the solvent on signal intensity. Raw SPR data from the single point screen was processed and analysed using Pipeline Pilot version 8.0.1.500[37]. Firstly, the reported binding level for each fragment was corrected by subtraction of the buffer blank.
(§3) The initial fragment hits were further investigated in a three-point concentration-response experiment against freshly immobilised WT HSC70-NBD and the S275W HSC70-NBD mutants using the same experimental protocol as for the primary screen. Compound dilutions of 50, 100 and 200 μM were generated using the ECHO 550.

WT HSC70-NBD = target: T3, WT HSC70-NBD (Homo sapiens, UniProt P11142); test: SPR binding to wild-type HSC70-NBD
T3 construct: WT HSPA8 (HSC70) residues 1 to 381; GST (N, cleaved yes); made in house; host or cells: E. coli BL21-AI (expressed as described for FL-HSP72)
T3 sequence (P11142 1-381): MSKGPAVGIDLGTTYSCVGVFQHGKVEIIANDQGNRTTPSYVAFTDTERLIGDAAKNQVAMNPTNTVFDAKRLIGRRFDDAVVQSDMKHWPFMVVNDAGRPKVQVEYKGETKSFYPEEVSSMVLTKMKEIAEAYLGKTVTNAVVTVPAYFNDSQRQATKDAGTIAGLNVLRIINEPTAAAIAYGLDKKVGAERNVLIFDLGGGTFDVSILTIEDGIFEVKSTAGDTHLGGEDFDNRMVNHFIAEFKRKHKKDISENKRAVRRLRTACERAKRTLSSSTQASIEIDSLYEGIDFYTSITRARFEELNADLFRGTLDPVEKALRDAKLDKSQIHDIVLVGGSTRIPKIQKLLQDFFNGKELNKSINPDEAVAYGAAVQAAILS
Method: as §1, §2, §3

HSP72 = target: T4, HSP72 (Homo sapiens, UniProt P0DMV8); test: Ligand observed NMR (CPMG) binding to HSP72 with ATP competition; conditions: 0.5 mM compound, 20 µM HSP72, ± 100 µM ATP; 1D CPMG
T4 construct: 6xHis followed by HRV 3C protease site (N); made in house; host or cells: E. coli BL21-AI
T4 sequence (P0DMV8 whole entry): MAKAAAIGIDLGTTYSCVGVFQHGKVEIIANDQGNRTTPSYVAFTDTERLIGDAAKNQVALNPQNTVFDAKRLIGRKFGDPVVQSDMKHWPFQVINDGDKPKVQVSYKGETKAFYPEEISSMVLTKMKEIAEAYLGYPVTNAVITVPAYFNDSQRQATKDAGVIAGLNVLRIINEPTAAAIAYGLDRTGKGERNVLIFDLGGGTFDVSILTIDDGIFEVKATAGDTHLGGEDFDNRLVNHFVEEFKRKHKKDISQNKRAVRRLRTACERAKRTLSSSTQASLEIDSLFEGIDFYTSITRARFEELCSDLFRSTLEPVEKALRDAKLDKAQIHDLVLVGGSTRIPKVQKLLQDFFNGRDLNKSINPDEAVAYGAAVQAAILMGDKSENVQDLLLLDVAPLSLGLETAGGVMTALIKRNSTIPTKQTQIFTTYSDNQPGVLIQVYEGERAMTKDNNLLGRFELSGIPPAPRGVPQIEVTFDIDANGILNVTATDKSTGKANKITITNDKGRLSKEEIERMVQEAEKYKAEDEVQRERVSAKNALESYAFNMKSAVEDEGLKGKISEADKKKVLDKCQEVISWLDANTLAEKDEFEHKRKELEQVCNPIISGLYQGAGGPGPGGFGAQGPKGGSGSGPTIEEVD
Method: Ligand observed NMR experiments
NMR experiments were conducted at a 1H frequency of 500 MHz using a Bruker Avance 500 spectrometer (Bruker, […]) equipped with a 1.7 mm TXI probe. All data were acquired and processed using Bruker Topspin 3.2. The Relaxation edited 1H-NMR spectrum was acquired at 295K using the CPMG sequence with a spin-lock time of 600 ms. The water signal was suppressed using presaturation during relaxation delay (2 s) and by using the Watergate sequence subsequent to the CPMG sequence. For each spectrum 64 transients were acquired. The three samples for which spectra were collected consisted of 50 mM phosphate buffer at pH 7.5, 10% (v/v) D2O and 0.5 mM compound 30, 0.5 mM compound 30 in the presence of 20 µM HSP72, and 0.5 mM compound 30 in the presence of 20 µM HSP72 and 100 µM ATP respectively (see Figure S 8).

Row | Structure (SMILES) | binding to S275F HSC70-NBD mutant (in words) (S275F HSC70-NBD) | pKd (HSP70) | binding to S275W HSC70-NBD mutant (in words) (S275W HSC70-NBD) | pKd (WT HSC70-NBD; SPR, 25 °C, mean ± standard deviation or standard error, triplicate unless marked duplicate/single) | LE (ligand efficiency) (WT HSC70-NBD; calculated using the SPR Kd on WT HSC70-NBD) | binding to HSP72 by ligand observed NMR (HSP72) | Kd S275W HSC70-NBD (S275W HSC70-NBD; single measurement)
1 | N#Cc1ccc(COC[C@H]2O[C@@H](n3c(NCc4ccc(Cl)c(Cl)c4)nc4c(N)ncnc43)[C@H](O)[C@@H]2O)cc1 [Compound 1, VER-155008] | abolished binding | 6.52 | abolished binding |  |  |  | 
2 | OC[C@H]1C[C@@H](Nc2ncnc3cccc(OCc4ccccn4)c23)[C@H](O)[C@@H]1O [Compound 30] |  |  |  | 4.12 | 0.20 | bind in the ATP-binding site | No binding
